# Assay results as given in patent US9029544B2, “Tricyclic pyridine derivatives, medicaments containing such compounds, their use and process for their preparation” (Boehringer Ingelheim International GmbH, priority 2010, dated 2015).
# Target: T1, Recombinant human CETP (Homo sapiens, UniProt P11597)
# T1 construct: made in house; host or cells: CHO cells (secreted into conditioned medium)
# T1 sequence (P11597 18-493): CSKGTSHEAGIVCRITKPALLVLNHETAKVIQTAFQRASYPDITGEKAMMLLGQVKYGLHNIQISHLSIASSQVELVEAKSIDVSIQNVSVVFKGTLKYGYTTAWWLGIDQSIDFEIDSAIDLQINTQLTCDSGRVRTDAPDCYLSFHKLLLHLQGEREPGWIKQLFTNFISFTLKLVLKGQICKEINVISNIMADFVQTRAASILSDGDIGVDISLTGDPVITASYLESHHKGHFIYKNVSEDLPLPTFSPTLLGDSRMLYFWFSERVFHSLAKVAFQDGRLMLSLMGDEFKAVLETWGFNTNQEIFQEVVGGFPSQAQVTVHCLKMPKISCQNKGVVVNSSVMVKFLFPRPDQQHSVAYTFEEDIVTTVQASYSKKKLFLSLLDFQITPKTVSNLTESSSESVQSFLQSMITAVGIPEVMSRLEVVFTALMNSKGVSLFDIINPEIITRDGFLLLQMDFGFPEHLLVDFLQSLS
# Experiment: CETP in vitro assay (fluorometric assay, Roar Biomedical; cholesterol ester transfer from HDL to LDL)
# Assay type: biochemical
# Conditions: recombinant human CETP from CHO cells; 3 hours at 37° C.; fluorescence 485/535 nm; compound concentrations between 1 nM and 30 μM; read-out: IC50 values for inhibition of CETP
# Outline: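 Fluorometric transfer assay using donor and acceptor particles with recombinant human CETP partially purified from conditioned medium of CETP-expressing CHO cells. Compound in DMSO incubated 3 hours at 37° C; fluorescence Ex 485/Em 535 nm. IC50 from dose-effect curves over 1 nM to 30 μM.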
row,SMILES,IC50 [nM]
1,"CC(C)c1nc2c(c3c1[C@@H](c1ccc(S(F)(F)(F)(F)F)cc1)OC31CCCC1)[C@@H](O)CC(C)(C)C2 [1(71), (3′R,9′S)-4′-isopropyl-7′,7′-dimethyl-3′-(4-(pentafluorosulfanyl)phenyl)-6′,7′,8′,9′-tetrahydro-3′H-spiro[cyclopentane-1,1′-furo[3,4-c]quinolin]-9′-ol]",31
2,"O[C@H]1CC2(CCC2)Cc2nc(C3CCOCC3)c3c(c21)C1(CCOCC1)O[C@@H]3c1ccc(C(F)(F)F)nc1 [1(78), (3R,9S)-7,7-(propan-1,3-diyl)-4-(tetrahydro-2H-pyran-4-yl)-3-(6-(trifluoromethyl)pyridin-3-yl)-2′,3′,5′,6,6′,7,8,9-octahydro-3H-spiro[furo[3,4-c]quinoline-1,4′-pyran]-9-ol]",362
3,"CC1(C)Cc2nc(C3CCOCC3)c3c(c2[C@@H](O)C1)C1(CCOCC1)O[C@@H]3c1ccc(C(F)(F)F)c(C#N)c1 [1(74), 5-((3R,9S)-9-hydroxy-7,7-dimethyl-4-(tetrahydro-2H-pyran-4-yl)-2′,3′,5′,6,6′,7,8,9-octahydro-3H-spiro[furo[3,4-c]quinoline-1,4′-pyran]-3-yl)-2-(trifluoromethyl)benzonitrile]",100
4,"C=C(C)c1ccc([C@H]2OC3(CCCC3)c3c2c(C(C)C)nc2c3[C@@H](O)CC(C)(C)C2)cc1 [1(60), (3′R,9′S)-4′-isopropyl-7′,7′-dimethyl-3′-(4-(prop-1-en-2-yl)phenyl)-6′,7′,8′,9′-tetrahydro-3′H-spiro[cyclopentane-1,1′-furo[3,4-c]quinolin]-9′-ol]",44
5,"CC(C)c1nc2c(c3c1[C@@H](c1ccc(C(F)(F)F)nc1)OC31CCOCC1)[C@@H](O)CC1(CCC1)C2 [1(52), (3R,9S)-4-isopropyl-7,7-(propan-1,3-diyl)-3-(6-(trifluoromethyl)pyridin-3-yl)-2′,3′,5′,6,6′,7,8,9-octahydro-3H-spiro[furo[3,4-c]quinoline-1,4′-pyran]-9-ol]",54

# Further lines, results first:
row,IC50 [nM],SMILES
1,147,"CC1(C)C[C@H](O)c2c(nc(C3CCOCC3)c3c2C2(CCOCC2)O[C@@H]3c2ccc(C(F)(F)F)c(C#N)c2)[C@@H]1O [4(9), 5-((3R,6R,9S)-6,9-dihydroxy-7,7-dimethyl-4-(tetrahydro-2H-pyran-4-yl)-2′,3′,5′,6,6′,7,8,9-octahydro-3H-spiro[furo[3,4-c]quinoline-1,4′-pyran]-3-yl)-2-(trifluoromethyl)benzonitrile]"
2,108,"COC(C)c1nc2c(c3c1[C@@H](c1ccc(C(F)(F)F)cc1)OC31CCOCC1)[C@@H](O)CC(C)(C)C2 (stereo partly drawn) [1(81), (3R,9S)-4-(1-methoxyethyl)-7,7-dimethyl-3-(4-(trifluoromethyl)phenyl)-2′,3′,5′,6,6′,7,8,9-octahydro-3H-spiro[furo[3,4-c]quinoline-1,4′-pyran]-9-ol]"
3,255,"CC1(C)C[C@H](O)c2c(nc(C3CCOCC3)c3c2C2(CCOCC2)O[C@@H]3c2ccc(C(F)(F)F)cc2)[C@@H]1O [4(11), (3R,6R,9S)-7,7-dimethyl-4-(tetrahydro-2H-pyran-4-yl)-3-(4-(trifluoromethyl)phenyl)-2′,3′,5′,6,6′,7,8,9-octahydro-3H-spiro[furo[3,4-c]quinoline-1,4′-pyran]-6,9-diol]"
4,19,"CC1(C)C[C@H](O)c2c(nc(C3CCOCC3)c3c2C2(CCCC2)O[C@@H]3c2ccc(S(F)(F)(F)(F)F)cc2)[C@@H]1O [4(6), (3′R,6′R,9′S)-7′,7′-dimethyl-4′-(tetrahydro-2H-pyran-4-yl)-3′-(4-(pentafluorosulfanyl)phenyl)-6′,7′,8′,9′-tetrahydro-3′H-spiro[cyclopentane-1,1′-furo[3,4-c]quinoline]-6′,9′-diol]"
5,418,"CC(C)c1nc2c(c3c1[C@@H](c1ccc(C(F)(F)F)nc1)OC31CCOCC1)[C@@H](O)CC(C)(C)[C@H]2O [5(5), (3R,6R,9S)-4-isopropyl-7,7-dimethyl-3-(6-(trifluoromethyl)pyridin-3-yl)-2′,3′,5′,6,6′,7,8,9-octahydro-3H-spiro[furo[3,4-c]quinoline-1,4′-pyran]-6,9-diol]"
